Laboratory results as given in patent US20230364070A1, “PYRROLO[3,2-C]PYRIDIN-4-ONE DERIVATIVES USEFUL IN THE TREATMENT OF CANCER” (Scorpion Therapeutics, Inc., priority 2020, published 2023).

Assays:
Type in all cases: cell-based
Ba/F3 cells with EGFR WT = target: T1, Ba/F3 cells with EGFR WT (Homo sapiens, UniProt P00533); test: EGFR activity: Ba/F3 cell viability (CellTiter-Glo, 72 h), EGFR WT; conditions: read-out: BaF3 WT IC50
T1 construct: expressed in transfected cells; host or cells: Ba/F3 (murine pro-B cells), retroviral transduction, puromycin selection, maintained with EGF
T1 sequence (P00533 25-1210): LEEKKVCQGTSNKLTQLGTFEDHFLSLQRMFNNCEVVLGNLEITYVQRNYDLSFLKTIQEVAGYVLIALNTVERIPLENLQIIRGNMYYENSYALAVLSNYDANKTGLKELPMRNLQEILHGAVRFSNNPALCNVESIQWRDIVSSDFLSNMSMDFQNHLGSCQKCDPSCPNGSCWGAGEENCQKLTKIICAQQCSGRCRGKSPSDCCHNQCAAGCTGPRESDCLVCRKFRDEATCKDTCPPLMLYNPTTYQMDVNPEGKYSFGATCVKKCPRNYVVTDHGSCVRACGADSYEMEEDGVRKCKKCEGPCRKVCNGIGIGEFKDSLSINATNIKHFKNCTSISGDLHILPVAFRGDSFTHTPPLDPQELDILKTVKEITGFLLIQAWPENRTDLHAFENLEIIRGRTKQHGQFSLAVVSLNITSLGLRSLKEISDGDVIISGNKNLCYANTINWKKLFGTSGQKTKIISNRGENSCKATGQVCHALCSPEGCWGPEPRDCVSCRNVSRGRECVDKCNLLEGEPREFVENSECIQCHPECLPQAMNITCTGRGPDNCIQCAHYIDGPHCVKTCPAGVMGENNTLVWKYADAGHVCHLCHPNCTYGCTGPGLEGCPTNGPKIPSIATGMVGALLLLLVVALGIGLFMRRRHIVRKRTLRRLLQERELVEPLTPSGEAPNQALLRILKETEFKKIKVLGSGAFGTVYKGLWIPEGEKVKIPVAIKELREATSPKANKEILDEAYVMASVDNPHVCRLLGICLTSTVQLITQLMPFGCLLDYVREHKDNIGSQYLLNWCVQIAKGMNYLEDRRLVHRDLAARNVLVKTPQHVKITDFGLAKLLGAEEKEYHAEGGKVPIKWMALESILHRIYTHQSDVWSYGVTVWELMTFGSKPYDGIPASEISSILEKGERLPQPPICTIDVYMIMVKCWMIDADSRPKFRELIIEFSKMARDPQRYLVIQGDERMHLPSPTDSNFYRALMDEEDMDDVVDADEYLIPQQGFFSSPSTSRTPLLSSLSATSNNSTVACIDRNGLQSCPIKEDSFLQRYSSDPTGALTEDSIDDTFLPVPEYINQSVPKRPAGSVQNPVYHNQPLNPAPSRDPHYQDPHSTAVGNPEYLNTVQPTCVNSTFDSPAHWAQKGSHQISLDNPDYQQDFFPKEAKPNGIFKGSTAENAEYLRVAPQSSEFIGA

[1] = target: T2, Ba/F3 cells with EGFR exon 20 NPG Ins D770_N771 (Homo sapiens, UniProt P00533, INS770NPG); test: EGFR activity: Ba/F3 cell viability (CellTiter-Glo, 72 h), EGFR exon 20 NPG insertion; conditions: EGFR exon 20 NPG Ins D770_N771, cell viability, read-out: BaF3 NPG IC50
T2 construct: expressed in transfected cells; host or cells: Ba/F3 (murine pro-B cells), retroviral transduction, puromycin selection, IL3-independent pool
T2 sequence (P00533 with tags, fused parts or gaps INS770NPG): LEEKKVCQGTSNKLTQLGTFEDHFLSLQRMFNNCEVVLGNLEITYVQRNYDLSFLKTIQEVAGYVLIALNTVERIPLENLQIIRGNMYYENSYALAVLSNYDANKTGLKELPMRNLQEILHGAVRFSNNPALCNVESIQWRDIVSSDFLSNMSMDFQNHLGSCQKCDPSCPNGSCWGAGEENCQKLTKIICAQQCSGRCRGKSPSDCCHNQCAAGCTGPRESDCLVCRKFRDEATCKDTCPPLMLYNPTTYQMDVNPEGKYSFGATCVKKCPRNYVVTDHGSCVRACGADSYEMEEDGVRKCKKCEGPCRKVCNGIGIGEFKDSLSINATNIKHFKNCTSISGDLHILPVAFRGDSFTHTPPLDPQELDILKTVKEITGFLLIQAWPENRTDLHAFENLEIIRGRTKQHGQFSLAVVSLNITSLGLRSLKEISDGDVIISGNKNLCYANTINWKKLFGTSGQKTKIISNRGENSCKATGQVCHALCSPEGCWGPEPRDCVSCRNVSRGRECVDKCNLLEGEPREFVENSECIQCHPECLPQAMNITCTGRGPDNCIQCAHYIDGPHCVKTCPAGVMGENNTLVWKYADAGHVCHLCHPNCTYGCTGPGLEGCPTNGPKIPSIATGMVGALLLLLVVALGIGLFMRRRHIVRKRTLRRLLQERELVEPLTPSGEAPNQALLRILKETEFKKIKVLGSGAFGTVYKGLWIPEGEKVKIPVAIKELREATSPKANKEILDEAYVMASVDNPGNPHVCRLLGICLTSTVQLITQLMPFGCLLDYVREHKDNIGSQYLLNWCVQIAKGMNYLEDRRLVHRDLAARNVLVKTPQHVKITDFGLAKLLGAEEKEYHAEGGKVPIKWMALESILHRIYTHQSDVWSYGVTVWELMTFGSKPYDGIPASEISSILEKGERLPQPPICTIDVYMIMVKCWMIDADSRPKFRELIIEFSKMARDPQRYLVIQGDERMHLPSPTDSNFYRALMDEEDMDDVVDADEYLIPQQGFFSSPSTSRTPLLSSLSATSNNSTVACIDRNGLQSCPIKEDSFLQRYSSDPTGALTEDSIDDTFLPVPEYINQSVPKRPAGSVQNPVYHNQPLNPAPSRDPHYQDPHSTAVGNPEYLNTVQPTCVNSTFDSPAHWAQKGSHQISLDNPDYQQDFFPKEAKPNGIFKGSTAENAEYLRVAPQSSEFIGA

[2] = target: T3, Ba/F3 cells with EGFR exon 20 ASV Ins V769_D770 (Homo sapiens, UniProt P00533, INS769ASV); test: EGFR activity: Ba/F3 cell viability (CellTiter-Glo, 72 h), EGFR exon 20 ASV insertion; conditions: EGFR exon 20 ASV Ins V769_D770, cell viability, read-out: BaF3 ASV IC50
T3 construct: expressed in transfected cells; host or cells: Ba/F3 (murine pro-B cells), retroviral transduction, puromycin selection, IL3-independent pool
T3 sequence (P00533 with tags, fused parts or gaps INS769ASV): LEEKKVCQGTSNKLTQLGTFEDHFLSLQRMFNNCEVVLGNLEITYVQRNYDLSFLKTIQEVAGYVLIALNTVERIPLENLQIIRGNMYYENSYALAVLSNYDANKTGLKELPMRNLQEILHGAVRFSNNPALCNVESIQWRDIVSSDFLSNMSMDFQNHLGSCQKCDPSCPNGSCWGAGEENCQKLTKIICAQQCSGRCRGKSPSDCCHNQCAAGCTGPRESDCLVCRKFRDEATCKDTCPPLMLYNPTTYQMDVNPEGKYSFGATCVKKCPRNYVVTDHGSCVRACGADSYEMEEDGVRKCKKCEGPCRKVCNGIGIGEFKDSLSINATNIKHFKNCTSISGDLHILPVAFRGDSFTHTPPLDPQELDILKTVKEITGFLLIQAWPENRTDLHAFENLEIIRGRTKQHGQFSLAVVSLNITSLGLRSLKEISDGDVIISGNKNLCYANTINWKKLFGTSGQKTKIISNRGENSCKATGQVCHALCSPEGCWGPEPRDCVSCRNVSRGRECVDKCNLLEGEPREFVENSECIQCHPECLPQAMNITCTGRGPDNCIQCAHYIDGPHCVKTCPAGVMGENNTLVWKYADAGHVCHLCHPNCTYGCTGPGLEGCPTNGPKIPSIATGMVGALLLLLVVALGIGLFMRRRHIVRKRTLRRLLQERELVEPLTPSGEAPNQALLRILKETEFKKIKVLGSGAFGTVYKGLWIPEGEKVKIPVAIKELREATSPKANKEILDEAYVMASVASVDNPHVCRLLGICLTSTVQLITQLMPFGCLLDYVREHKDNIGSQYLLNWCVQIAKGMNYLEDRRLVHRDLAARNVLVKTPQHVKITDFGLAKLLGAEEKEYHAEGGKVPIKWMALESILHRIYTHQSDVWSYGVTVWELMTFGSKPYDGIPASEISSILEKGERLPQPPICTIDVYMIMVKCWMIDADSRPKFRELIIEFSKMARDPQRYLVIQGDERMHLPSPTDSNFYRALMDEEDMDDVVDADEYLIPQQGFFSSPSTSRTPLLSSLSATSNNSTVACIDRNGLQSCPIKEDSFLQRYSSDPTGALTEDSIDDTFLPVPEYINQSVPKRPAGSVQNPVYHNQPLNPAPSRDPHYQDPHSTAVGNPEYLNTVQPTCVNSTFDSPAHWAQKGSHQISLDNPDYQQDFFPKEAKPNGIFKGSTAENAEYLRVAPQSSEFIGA

pEGFR in CUTO14 cells = target: T4, pEGFR in CUTO14 cells (Homo sapiens, UniProt P00533, DUP767-769); test: Inhibitor activity on EGFR phosphorylation (pEGFR AlphaLISA, 2 h), CUTO14 cells
T4 construct: endogenous in cells; host or cells: CUTO14 cells
T4 sequence (P00533 with tags, fused parts or gaps DUP767-769): as the sequence (P00533 with tags, fused parts or gaps INS769ASV) above
Procedure: CUTO14 cells were obtained from Dr. Robert C. Doebele at the University of Colorado.
Shake 350 rpm for 1 hr in the dark • 3.4 Prepare donor mix under low light conditions prior to use. Dispense 5 μL of donor mix to all the wells. Mix well on the shaker, seal and wrap in aluminum foil and incubate 1.5 hrs at room temperature in the dark • 3.5 Transfer 18.5 μL mixture to OptiPlate 384, and read using an Envision.

| SMILES | IC50 (pEGFR in CUTO14 cells) | IC50 (Ba/F3 cells with EGFR WT) | IC50 [1] | IC50 [2] |
| --- | --- | --- | --- | --- |
| C=CC(=O)NC1(C#Cc2cnccc2-c2[nH]c3c(c2Nc2cccc(Cl)c2OC)C(=O)NCC3)CCN(C)CC1 [compound 411] | 100 to 1000 nM | > 1000 nM | 100 to 1000 nM | 100 to 1000 nM |
| COc1c(Cl)cccc1Nc1c(-c2ccncc2C#CC2(NC(=O)/C=C/CN(C)C)COC2)[nH]c2c1C(=O)NCC2 [compound 416] | < 100 nM | > 1000 nM | 100 to 1000 nM | 100 to 1000 nM |
| COc1c(F)cccc1Nc1c(-c2ccncc2C#CC2(NC(=O)/C=C/CN(C)C)COC2)[nH]c2c1C(=O)NCC2 [compound 417] | 100 to 1000 nM | > 1000 nM | 100 to 1000 nM | 100 to 1000 nM |
| COc1c(F)cccc1Nc1c(-c2ccncc2C#C[C@]2(NC(=O)/C=C/CN(C)C)CCOC2)[nH]c2c1C(=O)NCC2 [compound 418] | 100 to 1000 nM | > 1000 nM | 100 to 1000 nM | 100 to 1000 nM |
| COc1c(F)cccc1Nc1c(-c2ccncc2C#C[C@@]2(NC(=O)/C=C/CN(C)C)CCOC2)[nH]c2c1C(=O)NCC2 [compound 419] | 100 to 1000 nM | > 1000 nM | 100 to 1000 nM | 100 to 1000 nM |
| COc1c(Cl)cccc1Nc1c(-c2ccncc2C#C[C@@]2(NC(=O)/C=C/CN(C)C)CCOC2)[nH]c2c1C(=O)NCC2 [compound 420] | < 100 nM | 100 to 1000 nM | < 100 nM | < 100 nM |
| COc1c(Cl)cccc1Nc1c(-c2ccncc2C#C[C@]2(NC(=O)/C=C/CN(C)C)CCOC2)[nH]c2c1C(=O)NCC2 [compound 421] | < 100 nM | > 1000 nM | < 100 nM | < 100 nM |
| COc1c(F)cccc1Nc1c(-c2ccncc2OC[C@@]2(C)CCN2C(=O)/C=C/CN(C)C)[nH]c2c1C(=O)NCC2 [compound 422] | < 100 nM | 100 to 1000 nM | < 100 nM | < 100 nM |
| COc1c(F)cccc1Nc1c(-c2ccncc2OC[C@]2(C)CCN2C(=O)/C=C/CN(C)C)[nH]c2c1C(=O)NCC2 [compound 423] | < 100 nM | > 1000 nM | < 100 nM | < 100 nM |
| COc1c(Cl)cccc1Nc1c(-c2ccncc2OC[C@]2(C)CCN2C(=O)/C=C/CN(C)C)[nH]c2c1C(=O)NCC2 [compound 424] | < 100 nM | 100 to 1000 nM | < 100 nM | < 100 nM |
| COc1c(Cl)cccc1Nc1c(-c2ccncc2OC[C@@]2(C)CCN2C(=O)/C=C/CN(C)C)[nH]c2c1C(=O)NCC2 [compound 425] | < 100 nM | 100 to 1000 nM | < 100 nM | < 100 nM |
| CCc1c(F)cccc1Nc1c(-c2ccncc2OC[C@@]2(C)CCN2C(=O)/C=C/CN(C)C)[nH]c2c1C(=O)NCC2 [compound 426] | < 100 nM | 100 to 1000 nM | < 100 nM | < 100 nM |
| CCc1c(F)cccc1Nc1c(-c2ccncc2OC[C@]2(C)CCN2C(=O)/C=C/CN(C)C)[nH]c2c1C(=O)NCC2 [compound 427] | < 100 nM | 100 to 1000 nM | < 100 nM | < 100 nM |
| CC#CC(=O)N1CCOC[C@H]1COc1cnccc1-c1[nH]c2c(c1Nc1cccc(Cl)c1OC)C(=O)NCC2 [compound 429] | 100 to 1000 nM | 100 to 1000 nM | < 100 nM | 100 to 1000 nM |
| C=CC(=O)N1CCC[C@]1(C)C#Cc1cnccc1-c1[nH]c2c(c1Nc1cc(F)cc(Cl)c1OC)C(=O)NCC2 [compound 430] | < 100 nM | 100 to 1000 nM | < 100 nM | < 100 nM |
| CC#CC(=O)N1CCC[C@]1(C)C#Cc1cnccc1-c1[nH]c2c(c1Nc1cc(F)cc(Cl)c1OC)C(=O)NCC2 [compound 431] | < 100 nM | 100 to 1000 nM | < 100 nM | < 100 nM |

Continued, in another order:

| IC50 (pEGFR in CUTO14 cells) | SMILES | IC50 (Ba/F3 cells with EGFR WT) | IC50 [1] | IC50 [2] |
| --- | --- | --- | --- | --- |
| < 100 nM | COc1c(Cl)cccc1Nc1c(-c2ccncc2C#C[C@@]2(C)CCCN2C(=O)C#CCN(C)C)[nH]c2c1C(=O)NCC2 [compound 433] | 100 to 1000 nM | < 100 nM | < 100 nM |
| < 100 nM | COc1c(F)cccc1Nc1c(-c2ccncc2C#C[C@@]2(C)CCCN2C(=O)C#CCN(C)C)[nH]c2c1C(=O)NCC2 [compound 434] | 100 to 1000 nM | < 100 nM | < 100 nM |
| < 100 nM | COc1c(Cl)cc(F)cc1Nc1c(-c2ccncc2C#C[C@@]2(C)CCCN2C(=O)/C=C/CN(C)C)[nH]c2c1C(=O)NCC2 [compound 435] | 100 to 1000 nM | < 100 nM | < 100 nM |
| < 100 nM | COc1c(Cl)cccc1Nc1c(-c2ccncc2C#CC23CC(CN2C(=O)/C=C/CN(C)C)C3)[nH]c2c1C(=O)NCC2 [compound 436] | 100 to 1000 nM | < 100 nM | < 100 nM |
| < 100 nM | COc1c(F)cccc1Nc1c(-c2ccncc2C#CC23CC(CN2C(=O)/C=C/CN(C)C)C3)[nH]c2c1C(=O)NCC2 [compound 437] | 100 to 1000 nM | < 100 nM | < 100 nM |
| < 100 nM | C=CC(=O)NC1(C#Cc2cnccc2-c2[nH]c3c(c2Nc2cc(F)cc(Cl)c2OC)C(=O)NCC3)COC1 [compound 440] | 100 to 1000 nM | < 100 nM | < 100 nM |
| < 100 nM | COc1c(F)cccc1Nc1c(-c2ccncc2C#C[C@@]2(C)CCCN2C(=O)/C=C/CN2CC(OC)C2)[nH]c2c1C(=O)NCC2 [compound 441] | 100 to 1000 nM | < 100 nM | < 100 nM |
| 100 to 1000 nM | COc1c(F)cccc1Nc1c(-c2ccncc2C#C[C@@]2(C)CCCN2C(=O)/C=C/CN2CCOCC2)[nH]c2c1C(=O)NCC2 [compound 442] | > 1000 nM | 100 to 1000 nM | 100 to 1000 nM |
| < 100 nM | COc1c(F)cccc1Nc1c(-c2ccncc2C#C[C@@]2(C)CCCN2C(=O)/C=C/CN2CC[C@H](OC)C2)[nH]c2c1C(=O)NCC2 [compound 443] | 100 to 1000 nM | < 100 nM | < 100 nM |
| < 100 nM | COc1c(F)cccc1Nc1c(-c2ccncc2C#C[C@@]2(C)CCCN2C(=O)/C=C/CN2CC[C@@H](OC)C2)[nH]c2c1C(=O)NCC2 [compound 444] | 100 to 1000 nM | < 100 nM | < 100 nM |
| 100 to 1000 nM | COc1c(F)cccc1Nc1c(-c2ccncc2C#C[C@@]2(C)CCCN2C(=O)/C=C/CN2CC(F)(F)C2)[nH]c2c1C(=O)NCC2 [compound 445] | > 1000 nM | 100 to 1000 nM | 100 to 1000 nM |
| < 100 nM | CC#CC(=O)N1CC[C@@H]1COc1cnccc1-c1[nH]c2c(c1Nc1cccc(C(F)F)c1OC)C(=O)NCC2 [compound 446] | 100 to 1000 nM | < 100 nM | < 100 nM |
| < 100 nM | C#CC(=O)N1CC[C@@H]1COc1cnccc1-c1[nH]c2c(c1Nc1cccc(Cl)c1OC)C(=O)NCC2 [compound 447] | 100 to 1000 nM | < 100 nM | < 100 nM |
| < 100 nM | C=CC(=O)NC(C)(C)COc1cnccc1-c1[nH]c2c(c1Nc1cccc(Cl)c1OC)C(=O)NCC2 [compound 448] | 100 to 1000 nM | < 100 nM | < 100 nM |
| < 100 nM | Cc1c(F)cccc1Nc1c(-c2ccncc2C#CC(C)(C)NC(=O)/C=C/CN(C)C)[nH]c2c1C(=O)NCC2 [compound 449] | 100 to 1000 nM | < 100 nM | < 100 nM |
